Values after ≈ are worked out from the molar mass of the structure shown.
Key:
[1] = Particle Size Distribution (PSD) by Laser Diffraction (Malvern Mastersizer 3000); type: physicochemical; conditions: dispersed in ethyl acetate
Protocol: Particle Size Distribution (PSD) by Laser Diffraction
Particle size analyses were conducted on a Malvern Mastersizer™ 3000 using the Hydro MV™ dispersion unit. A non-validated general PSD method/dispersant method was used to analyze the niraparib samples. The sample preparation procedure performed was as follows: Weigh 10 to 20 mg of niraparib into a 30-mL vial, add 20 mL of ethyl acetate. Disperse the sample by vortexing then sonicating the suspension in an ultrasonic bath for 1 minute. Then transfer the sample suspension to the Malvern Hydro MV™ dispersion unit to obtain obscuration between 5 and 15%.
PSD results from a Dv10 of 0.601 μ to a Dv90 of 12.9μ were obtained. […] Particle size distributions can be viewed in Table 1.

[2] = Specific Surface Area (SSA) determination by BET Sorptometry; type: physicochemical
Protocol: As used herein, the “specific surface area” is the total surface area of the niraparib particle per unit of niraparib mass as measured by the Brunauer-Emmett-Teller (“BET”) isotherm (i.e.: the BET SSA). As will be understood by those of skill in the art, the SSA is determined on a per gram basis and takes into account both agglomerated and non-agglomerated niraparib particles in the composition. The BET specific surface area test procedure is a compendial method included in both the United States Pharmacopeia and the European Pharmacopeia. The niraparib particles have a specific surface area (SSA) of at least 5 m^2/g. In various further embodiments, the niraparib particles have a SSA of at least 6 m^2/g, 7 m^2/g, 8 m^2/g, 9 m^2/g 10 m^2/g, 11 m^2/g, 12 m^2/g, 13 m^2/g, 14 m^2/g, 15 m^2/g, 16 m^2/g, 17 m^2/g, 18 m^2/g, 19 m^2/g, 20 m^2/g, 21 m^2/g, 22 m^2/g, 23 m^2/g, or 24 m^2/g.
Specific Surface Area (SSA) determination by BET Sorptometry
Surface area analyses were conducted on a Quantachrome NOVAtouch™ LX2 BET Sorptometer. Surface area results can be found in Table 1.

[3] = Bulk density analysis by modified USP <616> Bulk Density of Powders Method I (bulk and tapped density); type: physicochemical
Text: As used herein, the bulk density (not tapped) of a particle is the ratio of the mass to the volume (including the interparticulate void volume) of an untapped powder sample.
As used herein, the tapped density of a particle is obtained by mechanically tapping a graduated cylinder containing the sample until little further volume change is observed.
Bulk density analysis by modified USP <616> Bulk Density of Powders Method I

physchem = conditions: for solubility at 24 h: 20 °C, aqueous with cosolvent or surfactant or cyclodextrin, thermodynamic from solid
Protocol: The solubility was determined by using a shake-flask method. The drug was added in excess to each solution prepared in duplicate. The vials were placed on a mechanical shaker for 24 hours at 20-25° C. After shaking, solution was removed and filtered through a 0.45 μm PTFE syringe filter and analyzed by UV/Visible spectrophotometry.

Dv-10 [1]: 33.2 μ
Dv-50 [1]: 103 μ
Dv-90 [1]: 267 μ
Surface Area ([2]; BET sorptometer): 0.70 m^2/gm
specific surface area measurement ([2]; material used in dissolution testing): 0.70 m^2/g
Bulk Density ([3]; not tapped): 0.617 gm/cm^3
Tapped Density ([3]; tapped): 0.741 gm/cm^3
solubility at 24 h (physchem; 10% ethanol in water): 56.2 µg/mL (≈ 175 µM)
solubility at 24 h (physchem; 10% methanol in water): 76.4 µg/mL (≈ 238 µM)
solubility at 24 h (physchem; 25% ethanol in water): 332 µg/mL (≈ 1040 µM)
solubility at 24 h (physchem; 25% methanol in water): 204 µg/mL (≈ 637 µM)
solubility versus organic solvent concentration (physchem; methanol or ethanol, 10% and 25%): concentration dependent solubility
SMILES: NC(=O)c1cccc2cn(-c3ccc([C@@H]4CCCNC4)cc3)nc12 [Niraparib, (S)-2-(4-(piperidin-3-yl)phenyl)-2H-indazole-7-carboxamide]

— patent US11738014B2, “Niraparib particles and uses thereof” (CRITITECH, INC., priority 2021, dated 2023)
